Data: the supplement of paper PMC10307832

Compound: Cc1cc(Nc2cc(N3CCN(C)CC3)nc(Sc3ccc(NC(=O)C4CC4)cc3)n2)n[nH]1 [Tozasertib]
Assay: relative viability (nuclei count vs DMSO), 5 days (fraction); higher = more cells survive
Method in brief: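 Nuclei counted with MetaXpress define viability as the ratio of treated to vehicle wells, given as a median across plates. The lung cancer cell lines were in 1536-well plates, pinned with five √10-spaced library-drug doses and imaged at 4× after 5 days and Hoechst staining. Plates passed with control CV below 25% and at least one doubling.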

Cell Line	relative viability (0.004 µM)	relative viability (0.01265 µM)	relative viability (0.04 µM)	relative viability (0.1 µM, anchor plate)	relative viability (0.1265 µM)
201T	0.973	0.956	0.968	0.915	0.89
A549	1.02	0.982	1.05	–	0.488
A-427	1.04	0.911	1.08	0.212	0.505
ABC-1	1.02	0.858	0.767	0.186	0.412
BEN	1.11	0.921	1.06	–	0.759
CAL-12T	1.09	–	0.952	0.309	0.42
COR-L23	1.02	0.958	0.947	0.203	0.701
COR-L 105	0.956	0.974	0.957	0.36	0.473
ChaGo-K-1	1.06	1	1	0.233	0.858
EKVX	0.939	0.937	0.988	0.386	0.898
EMC-BAC-2	1.01	0.946	0.913	0.294	0.486
EPLC-272H	0.981	–	1	0.296	0.55
H3255	1.07	0.854	0.966	0.721	0.833
HARA	0.981	–	1.01	0.11	0.519
HCC-15	1.06	0.936	1.04	0.393	0.687
HCC-44	1.02	0.903	1.01	0.974	–
HCC-78	1.1	0.819	1.09	0.464	0.806
HCC-366	0.991	1.01	1.08	0.123	0.93
HCC-827	1.1	1.04	1.09	0.414	0.976
HOP-62	1.02	0.992	0.987	0.398	0.88
LC-2-ad	1.06	0.913	0.928	0.453	0.494
LCLC-97TM1	1.07	0.94	0.906	0.236	0.396
LCLC-103H	1.06	1.06	1.02	0.499	0.952
LK-2	1.09	0.847	1.09	0.176	0.489

Cell Line	relative viability (0.004 µM)	relative viability (0.01265 µM)	relative viability (0.04 µM)	relative viability (0.1 µM, anchor plate)	relative viability (0.1265 µM)
LOU-NH91	0.787	0.918	1.1	0.659	0.9
LU99A	1.05	0.904	0.824	0.282	0.594
LXF-289	1	0.972	0.943	0.199	0.759
NCI-H23	1.05	0.953	0.885	0.365	0.501
NCI-H322M	0.92	–	1.02	0.493	0.682
NCI-H358	1	–	0.977	0.109	0.37
NCI-H441	0.987	–	–	0.664	–
NCI-H460	1.01	0.955	1.04	0.415	0.868
NCI-H520	1.07	0.934	1.07	0.458	0.547
NCI-H596	0.993	0.883	1.01	0.919	0.988
NCI-H647	1.04	–	0.926	0.279	0.458
NCI-H650	0.993	0.934	0.918	0.724	0.606
NCI-H661	0.976	0.94	1	0.367	0.68
NCI-H727	1.15	0.879	1.11	0.667	0.78
NCI-H838	0.994	0.951	1.06	0.265	0.683
NCI-H1355	1.03	0.956	1.05	0.585	0.817
NCI-H1395	1.03	0.817	0.776	0.768	0.495
NCI-H1437	1.01	0.941	0.924	0.406	–
NCI-H1563	1.04	1.07	1.02	–	0.884
NCI-H1650	1.03	0.918	1.09	0.418	0.502
NCI-H1651	1.02	0.949	0.984	0.698	0.922
NCI-H1666	0.901	0.892	0.975	0.601	0.846
NCI-H1734	1.01	0.957	0.95	0.266	0.504
NCI-H1755	1.03	0.994	1.04	0.577	0.953

Cell Line	relative viability (0.004 µM)	relative viability (0.01265 µM)	relative viability (0.04 µM)	relative viability (0.1 µM, anchor plate)	relative viability (0.1265 µM)
NCI-H1792	1.16	0.781	1.01	–	0.613
NCI-H1793	1.03	0.76	1.01	0.384	0.892
NCI-H1915	1.04	0.986	0.934	0.435	0.795
NCI-H1944	1.01	0.963	0.901	0.263	0.526
NCI-H1975	1.04	0.91	1.06	0.759	0.85
NCI-H1993	1.03	0.782	0.939	0.58	0.676
NCI-H2009	1.03	0.951	1	0.74	0.885
NCI-H2023	0.999	0.985	1.14	0.369	0.605
NCI-H2085	1.02	0.982	0.984	0.84	0.915
NCI-H2087	1.16	1.02	1.11	0.254	0.581
NCI-H2126	0.996	1.06	1.04	0.846	0.925
NCI-H2170	0.964	1.01	0.954	0.755	0.893
NCI-H2228	1.08	1.07	1.03	0.265	0.607
NCI-H2342	0.997	–	–	0.52	0.909
NCI-H2347	1.03	1	1.08	0.573	0.941
NCI-H2405	1.04	1.01	0.992	0.731	0.885
NCI-H3122	0.965	0.976	–	0.421	1.01
PC-3 [JPC-3]	0.918	0.981	1.05	0.88	0.733
PC-14	0.81	0.904	1.1	0.601	0.638
RERF-LC-KJ	0.942	0.914	1.04	0.491	0.895
SK-LU-1	1.09	1.11	1.14	0.334	0.964
SK-MES-1	1.03	1	1.1	0.885	0.955
SW 1573	1.02	0.904	0.945	0.191	0.48
UMC-11	1.03	0.898	0.966	0.206	0.342
